Earlier results, collected in patent US20110034507A1, “FARNESOID X RECEPTOR AGONISTS” (SMITHKLINE BEECHAM CORPORATION, priority 2007, published 2011).

Columns and labels:
[1] = system: hepatic stellate cells (HSC); conditions: cultured HSCs; cited from earlier work
[2] = system: rodent models of hepatic fibrosis; conditions: multiple rodent models; cited from earlier work

For CC[C@H]1[C@@H](O)[C@@H]2[C@H](CC[C@]3(C)[C@@H]([C@H](C)CCC(=O)O)CC[C@@H]23)[C@@]2(C)CC[C@@H](O)C[C@@H]12 [Example 6EtCDCA, 6-ethyl-chenodeoxycholic acid], the “expression of α1(I)collagen” value [1] is given as “decreased”, the “expression of α-smooth muscle actin” value [1] is given as “decreased” and the hepatic fibrosis [2] is given as “prevent development and promote resolution”.
